In ChEMBL document CHEMBL1201862, “PubChem BioAssay data set” (2004):
Activity calls are given as the source filed them.

Tests used:
[1] = viability loss of HPDE-C7K cells – cell-based, fluorescence, HTS, primary screen (AID 431); format: functional; conditions: Homo sapiens
[2] = viability of PTEN-deleted HCT116 cells – cell-based, HCT116 PTEN knockout, dose response (AID 1047); format: functional;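 also: HCT116 colon tumor cells with PTEN knocked out; cells exposed to compound for 60 hours before readout; potency for loss of cell viability measured by luminescence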
[3] = viability of HCT116 lacking mutant beta-catenin – cell-based, human colon tumor, dose response (AID 1045); format: functional;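 also: HCT116 colon tumor cells with beta catenin knocked out; cells exposed to compound for 60 hours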
[4] = HPDE-C7 pancreatic duct cell viability loss – fluorescence, HTS (AID 430); format: functional, cell-based; conditions: Homo sapiens
[5] = viability loss in THP-1 monocytes – THP-1 cells, cytotoxicity control for Vif-APOBEC3G degradation inhibitor project, dose response (AID 1117359); format: functional; conditions: THP-1
[6] = target: T1, Aminopeptidase N (Plasmodium falciparum FcB1/Columbia, UniProt O96935); assay: malaria alanyl aminopeptidase activity blockers – biochemical, fluorogenic H-Leu-NHMec substrate, 1536-well (AID 1445); parameters: species or system Plasmodium falciparum 3D7, 3D7
T1 sequence (O96935 whole entry): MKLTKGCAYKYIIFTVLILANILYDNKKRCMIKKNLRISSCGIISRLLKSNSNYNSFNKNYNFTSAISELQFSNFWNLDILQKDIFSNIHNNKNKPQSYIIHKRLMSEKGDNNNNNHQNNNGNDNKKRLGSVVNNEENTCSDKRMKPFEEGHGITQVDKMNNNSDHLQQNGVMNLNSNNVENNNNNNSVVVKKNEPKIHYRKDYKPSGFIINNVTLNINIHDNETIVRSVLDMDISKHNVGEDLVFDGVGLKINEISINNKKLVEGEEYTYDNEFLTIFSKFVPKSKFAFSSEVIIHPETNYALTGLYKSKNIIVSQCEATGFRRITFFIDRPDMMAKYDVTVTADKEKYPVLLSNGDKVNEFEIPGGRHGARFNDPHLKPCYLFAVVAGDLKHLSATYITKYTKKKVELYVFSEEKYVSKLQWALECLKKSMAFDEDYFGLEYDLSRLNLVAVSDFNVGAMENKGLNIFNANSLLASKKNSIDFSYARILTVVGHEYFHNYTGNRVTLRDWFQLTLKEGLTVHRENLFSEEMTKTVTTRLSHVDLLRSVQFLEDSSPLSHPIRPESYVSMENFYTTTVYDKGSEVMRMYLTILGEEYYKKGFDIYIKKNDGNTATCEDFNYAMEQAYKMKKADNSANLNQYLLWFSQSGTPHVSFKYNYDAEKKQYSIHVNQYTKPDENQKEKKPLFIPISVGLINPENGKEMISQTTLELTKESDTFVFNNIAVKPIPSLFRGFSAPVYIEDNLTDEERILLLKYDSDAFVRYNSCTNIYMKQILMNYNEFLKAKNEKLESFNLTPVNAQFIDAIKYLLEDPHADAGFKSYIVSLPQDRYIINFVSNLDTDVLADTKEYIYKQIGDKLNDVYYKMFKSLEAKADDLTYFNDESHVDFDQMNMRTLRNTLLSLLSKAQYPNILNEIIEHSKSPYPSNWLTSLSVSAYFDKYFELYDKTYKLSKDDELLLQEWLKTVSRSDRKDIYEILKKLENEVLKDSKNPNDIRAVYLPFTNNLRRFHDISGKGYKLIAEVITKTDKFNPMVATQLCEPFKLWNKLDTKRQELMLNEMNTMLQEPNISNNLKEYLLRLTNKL

[7] = cells
[8] = target: T2, DNA repair protein RAD52 homolog (Homo sapiens, UniProt P43351); format: functional, biochemical
T2 sequence (P43351 whole entry): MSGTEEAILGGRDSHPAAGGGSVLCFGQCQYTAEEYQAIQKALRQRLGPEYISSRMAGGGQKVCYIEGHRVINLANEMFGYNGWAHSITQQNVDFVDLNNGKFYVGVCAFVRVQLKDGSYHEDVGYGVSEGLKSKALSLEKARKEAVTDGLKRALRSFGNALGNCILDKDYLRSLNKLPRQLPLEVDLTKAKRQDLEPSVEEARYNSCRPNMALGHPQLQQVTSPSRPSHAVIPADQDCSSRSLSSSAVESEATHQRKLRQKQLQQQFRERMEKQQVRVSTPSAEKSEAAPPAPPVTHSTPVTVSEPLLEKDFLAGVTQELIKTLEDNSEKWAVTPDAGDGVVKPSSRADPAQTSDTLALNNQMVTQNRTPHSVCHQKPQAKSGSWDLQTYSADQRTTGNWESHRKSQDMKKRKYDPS

[9] = Trypanosoma cruzi growth suppression in host cells – NIH3T3 host cells, beta-gal luminescence, confirmation (AID 2044); format: functional, cell-based;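 also: intracellular parasites grown in NIH/3T3 mouse fibroblasts as host cells; luminescent beta-galactosidase reporter signal from transgenic T. cruzi replicating inside host cells; inhibitors lower the luminescence signal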
[10] = NIH3T3 cell viability loss – ATP luminescence, mouse fibroblasts, counter-screen, dose response (AID 2010); format: functional, cell-based; conditions: NIH3T3;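 also: cells exposed to compound for about 90 hours before reading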
[11] = target: T3, Replicative DNA helicase DnaB (Mycobacterium tuberculosis, UniProt P9WMR3); assay: DnaB intein splicing inhibitors, dose response, biochemical, cell-free fluorescence (AID 449749); format: functional
T3 sequence (P9WMR3 whole entry): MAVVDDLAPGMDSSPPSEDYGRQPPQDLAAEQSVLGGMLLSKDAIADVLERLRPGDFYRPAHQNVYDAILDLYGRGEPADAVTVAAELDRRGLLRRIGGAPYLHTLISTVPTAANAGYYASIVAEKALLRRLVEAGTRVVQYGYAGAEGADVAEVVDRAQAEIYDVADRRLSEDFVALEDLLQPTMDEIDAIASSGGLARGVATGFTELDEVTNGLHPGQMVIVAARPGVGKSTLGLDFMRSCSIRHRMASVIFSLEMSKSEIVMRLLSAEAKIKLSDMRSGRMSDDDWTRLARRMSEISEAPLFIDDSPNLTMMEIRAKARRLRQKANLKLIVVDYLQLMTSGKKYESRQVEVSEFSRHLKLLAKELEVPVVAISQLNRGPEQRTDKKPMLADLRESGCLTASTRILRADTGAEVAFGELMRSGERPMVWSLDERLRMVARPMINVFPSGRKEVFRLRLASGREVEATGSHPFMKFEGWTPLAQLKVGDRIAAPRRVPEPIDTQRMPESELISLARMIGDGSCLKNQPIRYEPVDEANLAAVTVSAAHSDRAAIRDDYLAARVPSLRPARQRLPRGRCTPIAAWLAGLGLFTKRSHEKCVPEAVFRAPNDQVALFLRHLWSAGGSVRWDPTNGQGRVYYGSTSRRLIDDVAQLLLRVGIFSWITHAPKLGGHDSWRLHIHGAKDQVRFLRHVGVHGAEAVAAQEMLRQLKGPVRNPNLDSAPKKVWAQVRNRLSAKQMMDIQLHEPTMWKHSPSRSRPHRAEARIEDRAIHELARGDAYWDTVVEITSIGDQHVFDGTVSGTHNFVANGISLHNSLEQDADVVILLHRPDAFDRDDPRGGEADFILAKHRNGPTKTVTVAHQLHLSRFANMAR

[12] = system: BJ; assay: BJ-TERT-LT-ST fibroblast viability loss – cell-based, RAS-independent, luminescence, dose response (AID 1935); format: functional; conditions: Homo sapiens;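 also: BJ fibroblasts immortalized with TERT plus LT and ST oncogenes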
[13] = DRD fibroblast viability loss – cell-based, non-viral oncogenic, luminescence, dose response (AID 1934); format: functional; conditions: Homo sapiens
[14] = system: BJ; assay: BJ-TERT fibroblast viability loss – cell-based, RAS-independent, luminescence, dose response (AID 1933); format: functional; conditions: Homo sapiens
[15] = system: BJ; assay: cells; format: functional, cell-based; conditions: Homo sapiens
[16] = target: T4, Protein RecA (Mycobacterium tuberculosis, UniProt P9WHJ3); assay: Fluorescence Cell-Free Homogeneous Dose Retest to Identify Inhibitors of RecA-Intein Splicing Activity. [Related pubchem assays (depositor defined):AID2097, AID2223, AID489010, AID492950]; format: functional
T4 sequence (P9WHJ3 whole entry): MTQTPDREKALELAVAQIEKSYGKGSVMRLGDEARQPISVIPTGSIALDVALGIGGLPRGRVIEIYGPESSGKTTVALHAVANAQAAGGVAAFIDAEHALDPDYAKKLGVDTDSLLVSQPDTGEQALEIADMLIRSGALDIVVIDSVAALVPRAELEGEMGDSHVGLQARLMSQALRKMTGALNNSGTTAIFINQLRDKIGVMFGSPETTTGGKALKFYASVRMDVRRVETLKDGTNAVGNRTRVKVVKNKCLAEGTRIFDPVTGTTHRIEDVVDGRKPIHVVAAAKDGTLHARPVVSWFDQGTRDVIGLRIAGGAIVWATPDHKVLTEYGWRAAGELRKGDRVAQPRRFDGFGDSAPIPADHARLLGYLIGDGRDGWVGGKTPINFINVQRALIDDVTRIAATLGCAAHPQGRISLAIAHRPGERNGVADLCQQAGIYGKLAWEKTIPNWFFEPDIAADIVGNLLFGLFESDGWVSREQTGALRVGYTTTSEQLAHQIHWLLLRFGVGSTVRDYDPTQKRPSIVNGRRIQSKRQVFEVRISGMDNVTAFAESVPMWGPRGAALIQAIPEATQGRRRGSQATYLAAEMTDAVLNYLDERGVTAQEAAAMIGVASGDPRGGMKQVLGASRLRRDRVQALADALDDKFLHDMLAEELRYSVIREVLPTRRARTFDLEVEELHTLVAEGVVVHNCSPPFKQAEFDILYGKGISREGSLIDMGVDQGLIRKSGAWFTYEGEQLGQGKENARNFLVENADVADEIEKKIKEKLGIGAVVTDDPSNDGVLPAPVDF

[17] = target: T5, Mannose-6-phosphate isomerase (Homo sapiens, UniProt P34949); assay: MPI enzyme activity inhibition – biochemical, fluorescence intensity, coupled assay, primary screen (AID 1209)
T5 sequence (P34949 whole entry): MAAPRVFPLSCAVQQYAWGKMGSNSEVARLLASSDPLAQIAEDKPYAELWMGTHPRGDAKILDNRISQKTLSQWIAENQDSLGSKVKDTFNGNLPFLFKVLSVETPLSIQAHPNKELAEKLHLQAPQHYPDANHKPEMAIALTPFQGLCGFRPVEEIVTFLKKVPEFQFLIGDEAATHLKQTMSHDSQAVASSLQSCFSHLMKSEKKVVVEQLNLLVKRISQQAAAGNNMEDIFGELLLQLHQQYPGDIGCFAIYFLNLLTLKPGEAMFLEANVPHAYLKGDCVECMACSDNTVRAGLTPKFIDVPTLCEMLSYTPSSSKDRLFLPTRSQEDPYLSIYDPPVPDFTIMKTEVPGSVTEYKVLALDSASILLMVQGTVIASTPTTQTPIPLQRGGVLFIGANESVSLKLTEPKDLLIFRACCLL

[18] = target: T6, NADPH oxidase 1 (Homo sapiens, UniProt Q9Y5S8); format: functional, cell-based;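 also: Cell-based assay with luminescence read-out, IC50 derived from inhibitor dose-response curves; intracellular ROS from endogenous NOX1 in intact HT29 colon cancer cells; potency of inhibitors that lower the ROS luminescence signal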
T6 sequence (Q9Y5S8 whole entry): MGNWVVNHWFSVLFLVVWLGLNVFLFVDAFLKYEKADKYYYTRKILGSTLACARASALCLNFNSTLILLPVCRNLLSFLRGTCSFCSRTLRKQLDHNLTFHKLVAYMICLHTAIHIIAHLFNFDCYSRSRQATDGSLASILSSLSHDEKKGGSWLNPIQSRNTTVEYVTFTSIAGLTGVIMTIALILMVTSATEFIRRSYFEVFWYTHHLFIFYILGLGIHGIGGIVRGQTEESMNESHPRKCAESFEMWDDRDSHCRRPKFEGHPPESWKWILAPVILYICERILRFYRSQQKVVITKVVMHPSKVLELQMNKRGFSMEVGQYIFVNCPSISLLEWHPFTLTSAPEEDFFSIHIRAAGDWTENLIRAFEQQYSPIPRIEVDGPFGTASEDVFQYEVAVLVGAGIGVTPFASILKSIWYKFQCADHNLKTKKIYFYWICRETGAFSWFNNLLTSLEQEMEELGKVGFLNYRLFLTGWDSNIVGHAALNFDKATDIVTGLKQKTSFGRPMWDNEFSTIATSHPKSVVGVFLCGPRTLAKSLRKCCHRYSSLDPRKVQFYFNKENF

[19] = Dd2 parasite growth inhibition in erythrocytes – SYBR Green, dry powder samples, set 9, dose response (AID 1159568); format: functional, cell-based

O=S(=O)(CCN(CCS(=O)(=O)C(F)(F)F)CC1CCCO1)C(F)(F)F (stereo unspecified)
EC50 [1]: 10.6 µM (active) | EC50 [2]: 15.3 µM (active) | EC50 [3]: 9.32 µM (active) | EC50 [4]: 11.1 µM (active)

CCOC(=O)N1CCN(c2c(NCc3ccccc3Cl)c(=O)c2=O)CC1
CC50 [5]: 29.6 µM (active) | IC50 [6]: 69.3 µM (active)

COc1cc2nc(N(CCCN(C)C)C(=O)c3ccc(S(=O)(=O)N4CCc5ccccc54)cc3)sc2cc1OC
EC50 [7]: 0.129 µM (active) | AC50 [8]: 6.54 µM (active) | EC50 [9]: < 0.1 µM (active) | EC50 [10]: 16.4 µM (active)

CC(C)N(c1ccccc1)c1ccc(NC(=O)CCl)cc1
AC50 [11]: 4.41 µM (active) | EC50 [12]: > 150 µM (inconclusive) | EC50 [7]: 0.102 µM (active) | EC50 [9]: < 0.1 µM (active) | EC50 [13]: 1.37 µM (active) | EC50 [10]: > 60 µM (not active) | EC50 [14]: 0.344 µM (inconclusive) | EC50 [15]: 108 µM (active) | EC50 [16]: 0.505 µM (active)

Cc1cc2oc(=O)cc(CN3CCN(C/C=C/c4ccccc4)CC3)c2cc1O
EC50 [1]: > 20 µM (not active) | EC50 [9]: 0.102 µM (active) | EC50 [10]: > 60 µM (not active) | EC50 [4]: > 20 µM (not active)

CCOC(=O)N1CCN(S(=O)(=O)c2ccc(C(=O)N(CCCN(C)C)c3nc4cc(OC)ccc4s3)cc2)CC1
EC50 [7]: 0.03 µM (active) | EC50 [9]: < 0.1 µM (active) | EC50 [10]: > 30 µM (not active)

CN(O)/C=N/C(=S)Nc1ccc(Cl)cc1Cl
IC50 [17]: > 50 µM (not active)

Fc1ccc(-c2nc(-c3ccccc3)c(-c3ccccc3)[nH]2)cc1
IC50 [18]: > 17 µM (not active)

C[C@@H]1CCCCO[C@@H](CN(C)C(=O)Nc2cccc3ccccc23)[C@H](C)CN([C@@H](C)CO)C(=O)c2cc(NC(=O)CCC(F)(F)F)ccc2O1
AC50 [19]: 6.54 µM (active)

C[C@@H]1CCCCO[C@H](CN(C)S(=O)(=O)c2ccc(F)cc2)[C@@H](C)CN([C@@H](C)CO)C(=O)c2cc(N(C)C)ccc2O1
AC50 [19]: 2.17 µM (active)

Clc1ccc(-c2nc(-c3ccccc3)c(-c3ccccc3)[nH]2)cc1
IC50 [18]: > 17 µM (not active)
